Assay results from publication PMC11859928, “Design, Synthesis, and Antiproliferative Activity of Novel Indole/1,2,4-Triazole Hybrids as Tubulin Polymerization Inhibitors” (Pharmaceuticals, 2025).
Where two headings read alike, the source gives them in different places.

Columns and labels:
SR = assay: NCI five-dose assay; assay type: cell-based, human; conditions: Leukemia
NCI-H522 = assay: NCI five-dose assay; assay type: cell-based, human; conditions: NCI-H522, Non-small cell lung cancer
NCI/ADR-RES = assay: NCI five-dose assay; assay type: cell-based, human; conditions: Ovarian cancer
SF-268 = assay: NCI five-dose assay; assay type: cell-based, human; conditions: Homo sapiens, SF-268, CNS cancer
TK-10 = assay: NCI five-dose assay; assay type: cell-based, human; conditions: TK-10, Renal cancer
T-47D = assay: NCI five-dose assay; assay type: cell-based, human; conditions: Breast cancer
HT29 = assay: NCI five-dose assay; assay type: cell-based, human; conditions: HT29, Colon cancer
COLO205 = assay: NCI five-dose assay; assay type: cell-based, human; conditions: COLO205, Colon cancer
tubulin = biological target: T1, tubulin (Sus scrofa, UniProt P02550+P02554); assay: Tubulin polymerization inhibitory assay; assay type: biochemical
T1 construct: purchased Cytoskeleton Inc., Denver, CO, USA
In short: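 Compound effects on tubulin polymerization were measured with the Tubulin Polymerization Assay Kit (Cytoskeleton Inc., Denver, CO, USA), run as the supplier instructs, which detects polymerization through enhancement of a fluorescent reporter. Docetaxel served as the stabilizing control and vincristine as the destabilizing control, each at 3 µM in PBS.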

SF-295 = assay: NCI five-dose assay; assay type: cell-based, human; conditions: SF-295, CNS cancer
EKVX = assay: NCI five-dose assay; assay type: cell-based, human; conditions: Non-small cell lung cancer
MDA-MB-435 = assay: NCI five-dose assay; assay type: cell-based, human; conditions: MDA-MB-435, Melanoma
SW-620 = assay: NCI five-dose assay; assay type: cell-based, human; conditions: SW-620, Colon cancer
UACC-257 = assay: NCI five-dose assay; assay type: cell-based, human; conditions: UACC-257, Melanoma
Prostate cancer subpanel = assay: NCI five-dose assay, subpanel mean; assay type: cell-based, human
DU-145 = assay: NCI five-dose assay; assay type: cell-based, human; conditions: DU-145, Prostate cancer
HCT-15 = assay: NCI five-dose assay; assay type: cell-based, human; conditions: HCT-15, Colon cancer
[1] = tested on: panel of 60 human tumor cell lines; assay: NCI five-dose assay, full panel; assay type: cell-based
NCI-H23 = assay: NCI five-dose assay; assay type: cell-based, human; conditions: NCI-H23, Non-small cell lung cancer
HCC-2998 = assay: NCI five-dose assay; assay type: cell-based, human; conditions: HCC-2998, Colon cancer
K-562 = assay: NCI five-dose assay; assay type: cell-based, human; conditions: Homo sapiens, K562, K-562, Leukemia
CNS cancer subpanel = assay: NCI five-dose assay, subpanel mean; assay type: cell-based, human; conditions: Homo sapiens; average sensitivity of all cell lines of the CNS cancer subpanel; read-out: GI50 Subpanel MID b
Melanoma subpanel = assay: NCI five-dose assay, subpanel mean; assay type: cell-based, human
SK-OV-3 = assay: NCI five-dose assay; assay type: cell-based, human; conditions: SK-OV-3, Ovarian cancer
LOX IMVI = assay: NCI five-dose assay; assay type: cell-based, human; conditions: Melanoma
[2] = Homo sapiens, 48 h, read-out: LC50 (the source's name)
[3] = Homo sapiens, read-out: GI50 Conc. per Cell Lines
[4] = 48 h, read-out: LC50 (the source's name)
[5] = read-out: GI50 Conc. per Cell Lines

T1 sequence (P02554 whole entry): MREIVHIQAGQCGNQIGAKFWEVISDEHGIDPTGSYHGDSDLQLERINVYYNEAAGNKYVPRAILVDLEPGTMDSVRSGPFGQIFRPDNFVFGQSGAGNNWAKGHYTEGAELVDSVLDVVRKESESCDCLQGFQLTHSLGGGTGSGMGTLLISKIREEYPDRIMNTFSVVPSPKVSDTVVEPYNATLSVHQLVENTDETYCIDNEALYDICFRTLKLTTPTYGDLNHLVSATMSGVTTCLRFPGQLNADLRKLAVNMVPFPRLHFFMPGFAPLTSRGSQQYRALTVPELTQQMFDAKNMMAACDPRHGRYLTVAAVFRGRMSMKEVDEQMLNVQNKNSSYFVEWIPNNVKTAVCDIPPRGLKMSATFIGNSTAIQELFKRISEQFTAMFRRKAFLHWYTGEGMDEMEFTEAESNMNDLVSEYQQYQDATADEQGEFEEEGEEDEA
T1 sequence (P02550 whole entry): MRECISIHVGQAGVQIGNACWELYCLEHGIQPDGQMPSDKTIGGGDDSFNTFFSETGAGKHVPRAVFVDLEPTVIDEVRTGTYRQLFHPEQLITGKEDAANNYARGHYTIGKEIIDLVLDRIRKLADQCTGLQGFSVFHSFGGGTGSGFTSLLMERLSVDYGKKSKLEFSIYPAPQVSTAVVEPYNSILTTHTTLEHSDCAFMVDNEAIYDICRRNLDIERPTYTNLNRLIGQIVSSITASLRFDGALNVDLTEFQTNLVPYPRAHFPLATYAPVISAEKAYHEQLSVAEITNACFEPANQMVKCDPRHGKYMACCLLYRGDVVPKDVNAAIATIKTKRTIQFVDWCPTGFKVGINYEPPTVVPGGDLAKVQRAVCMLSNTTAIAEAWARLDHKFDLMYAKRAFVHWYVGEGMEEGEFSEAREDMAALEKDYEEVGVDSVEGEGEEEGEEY

O/N=C(\CSc1nnc(-c2c[nH]c3ccccc23)n1-c1ccccc1)c1ccc(Br)cc1 [Compound 7i, (Z)-2-((5-(1H-Indol-3-yl)-4-phenyl-4H-1,2,4-triazol-3-yl)thio)-1-(4-bromophenyl) Ethanone Oxime]
CC50 (SR; [2]): > 100 µM | TGI Conc. per Cell Lines (SR): >100 µM | CC50 (NCI-H522; [2]): 61.6 µM | GI50 (NCI-H522; [3]): 2520 nM | TGI Conc. per Cell Lines (NCI-H522): 7.70 µM | LC50 (NCI/ADR-RES; Homo sapiens, 48 h): 8.08 µM | GI50 (NCI/ADR-RES; [3]): 1900 nM | TGI Conc. per Cell Lines (NCI/ADR-RES): 3.92 µM | CC50 (SF-268; [4]): > 100 µM | GI50 (SF-268; [5]): 2370 nM | CC50 (TK-10; [2]): 30.4 µM | GI50 (TK-10; [3]): 2800 nM | TGI Conc. per Cell Lines (TK-10): 7.63 µM | TGI Conc. per Cell Lines (T-47D): 17.20 µM | LC50 (concentration killing 50% of cells) (T-47D; Homo sapiens, T47D, 48 h): > 100 µM | GI50 (T-47D; Homo sapiens, T47D, read-out: GI50 Conc. per Cell Lines): 3.51 µM | TGI Conc. per Cell Lines (HT29): 5.03 µM | CC50 (HT29; Homo sapiens, HT-29, 48 h, read-out: LC50 (the source's name)): 17.8 µM | GI50 (HT29; Homo sapiens, HT-29, read-out: GI50 Conc. per Cell Lines): 2230 nM | TGI Conc. per Cell Lines (COLO205): 16.60 µM | CC50 (COLO205; Homo sapiens, COLO 205, 48 h, read-out: LC50 (the source's name)): > 100 µM | GI50 (COLO205; Homo sapiens, COLO 205, read-out: GI50 Conc. per Cell Lines): 3.8 µM | %inhibition (tubulin; conc 0.01 (unit not given; IC50 from this curve in µg/ml)): 6.76% | %inhibition (tubulin; conc 0.1 (unit not given; IC50 from this curve in µg/ml)): 21% | %inhibition (tubulin; conc 1 (unit not given; IC50 from this curve in µg/ml)): 47.4% | %inhibition (tubulin; conc 10 (unit not given; IC50 from this curve in µg/ml)): 68.5% | %inhibition (tubulin; conc 100 (unit not given; IC50 from this curve in µg/ml)): 87% | IC50 (tubulin; read-out: Tub. IC50±SD (converted)): 3.03 µM | IC50 (tubulin; read-out: Tubulin Inhibitory Effect, IC50): 3.03 ± 0.11 µM | CC50 (SF-295; [2]): 13.6 µM | GI50 (SF-295; [3]): 1930 nM | TGI Conc. per Cell Lines (SF-295): 4.70 µM | CC50 (EKVX; [2]): 34.2 µM | GI50 (EKVX; [3]): 2600 nM | TGI Conc. per Cell Lines (EKVX): 9.09 µM | CC50 (MDA-MB-435; [2]): 7.57 µM | GI50 (MDA-MB-435; [3]): 2010 nM | TGI Conc. per Cell Lines (MDA-MB-435): 3.89 µM | CC50 (SW-620; [2]): 62.1 µM | GI50 (SW-620; [3]): 3.28 µM | TGI Conc. per Cell Lines (SW-620): 12.10 µM | CC50 (UACC-257; [2]): 72.6 µM | GI50 (UACC-257; [3]): 3.87 µM | TGI Conc. per Cell Lines (UACC-257): 17.50 µM | GI50 (Prostate cancer subpanel; Homo sapiens, average sensitivity of all cell lines of the Prostate cancer subpanel, read-out: GI50 Subpanel MID b): 2100 nM | GI50 Selectivity Ratio (MID a/MID b) (Prostate cancer subpanel; Prostate cancer subpanel): 1.33 | TGI Conc. per Cell Lines (DU-145): 4.08 µM | GI50 (DU-145; [3]): 2050 nM | TGI Conc. per Cell Lines (HCT-15): 4.72 µM | CC50 (HCT-15; [2]): 12.1 µM | GI50 (HCT-15; [3]): 2110 nM | GI50 ([1]; average sensitivity of all cell lines, read-out: GI50 MID a): 2800 nM | GI50 ([1]; most of the tested cell lines across nine subpanels, read-out: GI50 values, range across nine subpanels): 2100 to 3230 nM | CC50 (NCI-H23; [2]): 84.3 µM | GI50 (NCI-H23; [3]): 4.31 µM | TGI Conc. per Cell Lines (NCI-H23): 19.60 µM | TGI Conc. per Cell Lines (HCC-2998): 12.30 µM | CC50 (HCC-2998; [2]): 35.8 µM | GI50 (HCC-2998; [3]): 3.36 µM | CC50 (K-562; [4]): > 100 µM | GI50 (K-562; [5]): 2220 nM | GI50 (CNS cancer subpanel): 3.15 µM | GI50 (Melanoma subpanel; Homo sapiens, average sensitivity of all cell lines of the Melanoma subpanel, read-out: GI50 Subpanel MID b): 2890 nM | GI50 Selectivity Ratio (MID a/MID b) (Melanoma subpanel; Melanoma subpanel): 0.97 | CC50 (SK-OV-3; [2]): 27.4 µM | GI50 (SK-OV-3; [3]): 2530 nM | TGI Conc. per Cell Lines (SK-OV-3): 6.03 µM | CC50 (LOX IMVI; [2]): 5.69 µM | GI50 (LOX IMVI; [3]): 1710 nM | TGI Conc. per Cell Lines (LOX IMVI): 3.12 µM
